Results reported in patent EP0912751B1, “PROCESS FOR PREPARATION OF D-PROLINE D[…] MEANS OF MICRO-ORGANISMS” (LONZA AG, priority 1996, dated 1998).

Test system: Amidinohydrolase
Experiment: Enzyme characterisation (kinetics and inhibition) with whole cells
Type: biochemical, Pseudomonas aeruginosa (DSM 10581)
Description: Die Enzymcharakterisierung wurde mit ganzen Zellen von Pseudomonas aeruginosa (DSM 10581) durchgeführt. Dabei betrug die optische Dichte der Zellsuspension OD600 = 17. Der Einfluss der Temperatur wurde in 100 mM Phosphatpuffer (pH 7 - 8) bei einer Substratkonzentration von 25 mM L-α-Chlor-δ-guanidinvaleriansäure bestimmt. Dabei zeigte sich, dass bei 37 °C eine um 40% höhere Aktivität als bei 30 °C erhalten wurde. Der Einfluss des pH-Wertes wurde in gleichem Puffer, bei gleicher Substratkonzentration und bei einer Temperatur von 37 °C ermittelt. Gemessen wurde die Aktivität bei pH 7; pH 7,5; pH 8,0, pH 8,5. Dabei wurde festgestellt, dass das pH-Optimum bei pH 8,5 lag. Durch Einsatz von verschiedenen Konzentrationen an L-α-Chlor-δ-guanidinvaleriansäure wurde der KM-Wert und Vmax bei einer Temperatur von 37 °C, in 100 mM Phosphatpuffer (pH 8,5), bestimmt. Der KM-Wert betrug 85,2 mmol / l und Vmax 0,38 mmol / l / min (Fig. 3).
Durch Zugabe von verschiedenen Konzentrationen an L-α-Chlor-δ-aminovaleriansäure (hergestellt aus Ornithin analog zu Beispiel 6) konnte eine Hemmung nachgewiesen werden.

Compound: NCCC[C@H](Cl)C(=O)O [L-α-Chlor-δ-aminovaleriansäure]
- Hemmung (inhibitor at a concentration of 50 mM (Fig. 4)): vollständige Hemmung

Compound: N=C(N)NCCC[C@H](Cl)C(=O)O [L-α-Chlor-δ-guanidinvaleriansäure]
- Hemmung der Amidinohydrolase (listed as a property of the enzyme, no concentration given): gehemmt
- Vmax (substrate of the enzyme, 37 °C, 100 mM Phosphatpuffer (pH 8,5), whole cells, OD600 = 17): 0,38 mmol / l / min
- Km (substrate of the enzyme, 37 °C, 100 mM Phosphatpuffer (pH 8,5), whole cells, OD600 = 17, read-out: KM-Wert): 85.2 mM
